From patent publication US20240216401A1, “COMBINATION THERAPY BY USING AKR1C3-ACTIVATED COMPOUND WITH IMMUNE CHECKPOINT INHIBITOR” (OBI Pharma, Inc., priority 2021, published 2024)
Where “and” joins values, the source holds several entries; their conditions need not be identical. Equal values may be shown once.

Assays:
Assay type in all cases: in vivo, Mus musculus
[1] = test system: NK cells in tumor-infiltrating lymphocytes; assay: Example 1: flow cytometry, percentage of NK cells in TILs; settings: individual mice
Description: (§1) Mice were sacrificed by CO2 euthanasia at the end of the study duration, and the connective tissue around tumor was resected. The tumor samples were then removed and weighed. The half tissue was fixed in 10% formaldehyde and then embedded in paraffin; the other half was prepared for the isolation of tumor-infiltrating lymphocytes (TILs).
(§2) The half of mouse tumors were dissected into smaller fragments using scalpels and then digested with a cocktail of collagenase, DNase I, and Hyaluronidase (Collagenase #C5138, DNase I #D5025, Hyaluronidase #H6254, SigmaAldrich) for at least 2 hours.
(§3) Cells were stained with the fluorescently conjugated surface antibodies and incubated for 30 minutes at 4° C., and then resuspended in staining buffer for flow cytometric analysis. Flow cytometry was done using a Navios EX Flow Cytometer (Beckman Coulter). Data were analyzed using the Kaluza Analysis Software (Beckman Coulter).

[2] = test system: PD-L1^+ cells in tumor-infiltrating lymphocytes; assay: Example 1: flow cytometry, percentage of PD-L1 cells in TILs; settings: individual animal
Description: as §1, §2, §3

[3] = test system: CD4^+ T helper cells in tumor-infiltrating lymphocytes; assay: Example 1: flow cytometry, percentage of TH cells in TILs; settings: individual mice
Description: as §1, §2, §3

[4] = Example 1: body weight and mortality of HepG2 tumor bearing humanized mice; settings: OBI-3424 1 mg/kg IV, antibody 10 mg/kg IP (20 from Day 15)
Description: (§4) Each group contains five mice. The human hepatocellular carcinoma cell line HepG2 were subcutaneously inoculated to the advanced immune deficiency mice. Total of 30 mice were included in this study.
(§5) 3.1. […] The injection was performed using insulin syringe with the dosage of 10 mg/kg (Dosage of injection was changed to 20 mg/kg from Day 15) and injection volume of 10 mL/kg. […] The reference item was administered for G1. The procedure followed the standards of sample administration.
(§6) 3.2. The test item anti-hPD-L1 antibody or reference items were intraperitoneally injected to the mice on Day 8 after the inoculation of tumor cells. The injection was performed using insulin syringe with the dosage of 10 mg/kg (Dosage of injection was changed to 20 mg/kg from Day 15) and injection volume of 10 mL/kg. The test item anti-hPD-L1 was continuously administered on Day 8, 11, 15, 18, 22, 25, 29 and 32 for G4 and G6. The reference item was administered for G1. The procedure followed the standards of sample administration.
(§7) 3.3. […] The injection was performed using insulin syringe with the dosage of 1 mg/kg and injection volume of 5 mL/kg. […] The reference item was administered for G1. The procedure followed the standards of sample administration.
The measurement was performed from the next day of the inoculation. The animal body weights were measured and recorded twice per week.

[5] = test system: CD8^+ cytotoxic T cells (CTL) in tumor-infiltrating lymphocytes; assay: Example 1: flow cytometry, percentage of CTL cells in TILs
Description: as §1, §2, §3

[6] = test system: HepG2 tumor; assay: Example 1: tumor volume, tumor weight and TGI in HepG2 tumor bearing humanized mice
Description: as §4
2.2. […] The subcutaneous injection volume was […].
as §5, §6, §7
The measurement was performed from the next day of the inoculation. The tumor volumes were measured and recorded twice a week (Mon., Thur.). Tumor volume was calculated by ellipsoid equation according to the records ((major axis×minor axis×minor axis)×(π/6)).
Tumor volumes were used to calculate tumor growth inhibition (TGI) rates according to the following formula: TGI (%)=[1−(Ti−T0)/(Ci−C0)]×100, where Ti and Ci indicate the mean tumor volume in the treatment groups and vehicle group at the end of the experiment (Day 35). Whereas, T0 and C0 indicate the mean tumor volumes in the treatment group and vehicle group at the beginning of the experiment (Day 1).
as §1

[7] = TILs, flow cytometer, individual mice
[8] = TILs, gate CD45^+CD8^+ cells, individual mice

Substance: anti-hPD-1: Anti-Human PD-1 antibody, Pembrolizumab, Merck & Co., Inc.
- CD16^+ NK cells (CD45^+CD56^+ CD16^+) Total % ([1]; flow cytometer): 0.41% and 0.32% (2×) and 0.44% and 0.79%
- NK cells (CD45^+CD56^+) Total % ([1]; flow cytometer): 2.91% and 1.08% and 3.01% and 1.93% and 4.76%
- PD-1^+ NK cells (CD45^+CD56^+PD-1^+) Total % ([1]; flow cytometer): 2.67% and 1.13% and 2.36% and 1.46% and 1.78%
- NK cells (CD45^+CD56^+) CD45^+ Gated % ([1]; gate CD45^+ cells): 12.27% and 6.34% and 12.96% and 9.57% and 12.69%
- CD16^+ NK cells (CD45^+CD56^+ CD16^+) NK Gated % ([1]; gate CD45^+CD56^+ cells): 13.94% and 29.77% and 14.48% and 16.58% and 16.61%
- PD-1^+ NK cells (CD45^+CD56^+PD-1^+) NK Gated % ([1]; gate CD45^+CD56^+ cells): 99.81% and 100.00% and 87.08% and 98.31% and 64.90%
- CD16^+ NK cells (CD45^+CD56^+ CD16^+) Cell count [1]: 1.25 ×10^5 and 1.12 ×10^5 and 0.42 ×10^5 and 0.41 ×10^5 and 0.54 ×10^5
- NK cells (CD45^+CD56^+) Cell count [1]: 8.85 ×10^5 and 3.79 ×10^5 and 2.87 ×10^5 and 2.49 ×10^5 and 3.23 ×10^5
- PD-1^+ NK cells (CD45^+CD56^+PD-1^+) Cell count [1]: 8.12 ×10^5 and 3.97 ×10^5 and 2.25 ×10^5 and 1.88 ×10^5 and 1.21 ×10^5
- CD45^+ cells Cell count (×10^6) [2]: 7.83 ×10^6 and 6.28 ×10^6 and 2.69 ×10^6 and 2.68 ×10^6 and 3.03 ×10^6
- CD45^+ cells Gated % [2]: 41.15% and 30.42% and 47.95% and 36.87% and 63.31%
- CD45^+ cells Total % [2]: 25.75% and 17.89% and 28.22% and 20.74% and 44.68%
- Total PD-L1^+ cells (PD-L1^+) Cell count (×10^5) [2]: 10.55 ×10^5 and 13.65 ×10^5 and 2.38 ×10^5 and 7.80 ×10^5 and 4.22 ×10^5
- Total PD-L1^+ cells (PD-L1^+), Total % [2]: 3.47% and 3.89% and 2.50% and 6.05% and 6.21%
- Total PD-L1^+ cells (PD-L1^+), Total cells Gated % [2]: 6.45% and 7.52% and 3.68% and 7.83% and 6.95%
- Total cells Cell count (×10^6) [2]: 16.37 ×10^6 and 18.15 ×10^6 and 6.47 ×10^6 and 9.97 ×10^6 and 6.06 ×10^6
- Total cells Gated % [2]: 53.84% and 51.71% and 67.88% and 77.26% and 89.23%
- Total cells Total % [2]: 53.84% and 51.71% and 67.88% and 77.26% and 89.23%
- CD25^+ TH cells (CD45^+CD4^+ CD25^+) Total % ([3]; flow cytometer): 0.71% and 0.67% and 0.82% and 1.28% and 0.45%
- PD-1^+ TH cells (CD45^+CD4^+ PD-1^+) Total % ([3]; flow cytometer): 20.78% and 11.99% and 9.21% and 11.61% and 15.49%
- TH cells (CD45^+CD4^+) Total % ([3]; flow cytometer): 19.18% and 11.07% and 9.76% and 11.17% and 18.23%
- TH cells (CD45^+CD4^+) CD45^+ Gated % ([3]; gate CD45^+ cells): 74.49% and 61.90% and 34.59% and 53.85% and 40.81%
- CD25^+ TH cells (CD45^+CD4^+CD25^+) TH Gated % ([3]; gate CD45^+CD4^+ cells): 3.70% and 6.05% and 8.35% and 11.42% and 2.44%
- PD-1^+ TH cells (CD45^+CD4^+ PD-1^+) TH Gated % ([3]; gate CD45^+CD4^+ cells): 96.11% and 90.08% and 83.23% and 82.55% and 85.27%
- CD25^+ TH cells (CD45^+CD4^+ CD25^+) Cell count [3]: 2.16 ×10^5 and 2.35 ×10^5 and 0.78 ×10^5 and 1.65 ×10^5 and 0.31 ×10^5
- PD-1^+ TH cells (CD45^+CD4^+ PD-1^+) Cell count [3]: 63.17 ×10^5 and 42.08 ×10^5 and 8.78 ×10^5 and 14.98 ×10^5 and 10.52 ×10^5
- TH cells (CD45^+CD4^+) Cell count [3]: 58.31 ×10^5 and 38.86 ×10^5 and 9.30 ×10^5 and 14.41 ×10^5 and 12.38 ×10^5
- Body Weight, Mean ([4]; Day 0, group mean): 22.84 g
- Body Weight, Mean ([4]; Day 1, group mean): 22.47 g
- Body Weight, Mean ([4]; Day 4, group mean): 23.47 g
- Body Weight, Mean ([4]; Day 7, group mean): 23.48 g
- Body Weight, Mean ([4]; Day 11, group mean): 23.90 g
- Body Weight, Mean ([4]; Day 14, group mean): 23.94 g
- Body Weight, Mean ([4]; Day 18, group mean): 24.30 g
- Body Weight, Mean ([4]; Day 21, group mean): 23.59 g
- Body Weight, Mean ([4]; Day 25, group mean): 23.42 g
- Body Weight, Mean ([4]; Day 28, group mean): 22.52 g
- Body Weight, Mean ([4]; Day 32, group mean): 22.55 g
- Body Weight, Mean ([4]; Day 35, group mean): 22.77 g
- CD8^+ cytotoxic T cells (CTL) population in tumors compared with vehicle (in words) ([5]; Example 1, TILs at sacrifice, flow cytometry): not observed
- CD25^+ CTL cells (CD45^+CD8^+ CD25^+) Total % [5, 7]: 0.26% and 0.10% and 0.65% and 0.84% and 0.41%
- CTL cells (CD45^+CD8^+) Total % [5, 7]: 9.30% and 6.22% and 21.30% and 11.17% and 24.91%
- PD-1^+ CTL cells (CD45^+CD8^+ PD-1^+) Total % [5, 7]: 10.83% and 9.53% and 15.71% and 10.88% and 14.41%
- CTL cells (CD45^+CD8^+) CD45^+ Gated % ([5]; TILs, gate CD45^+ cells, individual mice): 36.10% and 34.75% and 75.47% and 53.85% and 55.75%
- CD25^+ CTL cells (CD45^+CD8^+ CD25^+) CTL Gated % [5, 8]: 2.80% and 1.53% and 3.05% and 7.48% and 1.65%
- PD-1^+ CTL cells (CD45^+CD8^+ PD-1^+) CTL Gated % [5, 8]: 89.36% and 84.37% and 66.70% and 66.59% and 57.38%
- CD25^+ CTL cells (CD45^+CD8^+ CD25^+) Cell count ([5]; TILs, individual mice): 0.79 ×10^5 and 0.35 ×10^5 and 0.62 ×10^5 and 1.08 ×10^5 and 0.28 ×10^5
- CTL cells (CD45^+CD8^+) Cell count ([5]; TILs, individual mice): 28.27 ×10^5 and 21.83 ×10^5 and 20.30 ×10^5 and 14.41 ×10^5 and 16.91 ×10^5
- PD-1^+ CTL cells (CD45^+CD8^+ PD-1^+) Cell count ([5]; TILs, individual mice): 32.92 ×10^5 and 33.45 ×10^5 and 14.97 ×10^5 and 14.04 ×10^5 and 9.78 ×10^5
- Tumor volume, Mean ([6]; D 1, group mean, OBI-3424 1 mg/kg IV, antibody 10 mg/kg IP (20 from Day 15)): 354.80 mm^3
- Tumor volume, Mean ([6]; D 4, group mean, OBI-3424 1 mg/kg IV, antibody 10 mg/kg IP (20 from Day 15)): 269.37 mm^3
- Tumor volume, Mean ([6]; D 7, group mean, OBI-3424 1 mg/kg IV, antibody 10 mg/kg IP (20 from Day 15)): 301.61 mm^3
- Tumor volume, Mean ([6]; D 11, group mean, OBI-3424 1 mg/kg IV, antibody 10 mg/kg IP (20 from Day 15)): 339.50 mm^3
- Tumor volume, Mean ([6]; D 14, group mean, OBI-3424 1 mg/kg IV, antibody 10 mg/kg IP (20 from Day 15)): 393.76 mm^3
- Tumor volume, Mean ([6]; D 18, group mean, OBI-3424 1 mg/kg IV, antibody 10 mg/kg IP (20 from Day 15)): 735.09 mm^3
- Tumor volume, Mean ([6]; D 21, group mean, OBI-3424 1 mg/kg IV, antibody 10 mg/kg IP (20 from Day 15)): 880.07 mm^3
- Tumor volume, Mean ([6]; D 25, group mean, OBI-3424 1 mg/kg IV, antibody 10 mg/kg IP (20 from Day 15)): 947.95 mm^3
- Tumor volume, Mean ([6]; D 28, group mean, OBI-3424 1 mg/kg IV, antibody 10 mg/kg IP (20 from Day 15)): 1171.03 mm^3
- Tumor volume, Mean ([6]; D 32, group mean, OBI-3424 1 mg/kg IV, antibody 10 mg/kg IP (20 from Day 15)): 1366.17 mm^3
- Tumor volume, Mean ([6]; D 35, group mean (mean±SEM), OBI-3424 1 mg/kg IV, antibody 10 mg/kg IP (20 from Day 15)): 1613.37±338.07 mm^3 and 1613.37 mm^3
- Tumor weight, Mean ([6]; D 35, group mean, OBI-3424 1 mg/kg IV, antibody 10 mg/kg IP (20 from Day 15)): 1266.48 mg
- mean tumor volume compared with vehicle (in words) ([6]; Day 35, vs vehicle (G1), Student's t-test): No statistically significant difference
- effect on tumor growth (conclusion in words) ([6]; HepG2 humanized mouse model): no effect on tumor growth
- TGI ([6]; from mean tumor volumes Day 35 vs Day 1, relative to vehicle, OBI-3424 1 mg/kg IV, antibody 10 mg/kg IP (20 from Day 15)): −9.69%
